Reference: BindingDB's records for PubMed 38266553 (China Pharmaceutical University)

Assays:
[1] = biological target: Prostaglandin G/H synthase 1 (Homo sapiens) (UniProt P23219); assay: Inhibition of COX-1 (unknown origin) using arachidonic acid as substrate preincubated for 10 mins followed by substrate addition and measured after 5 mins by fluorescence based analysis
[2] = biological target: Prostaglandin G/H synthase 2 (Homo sapiens) (UniProt P35354); assay: Inhibition of COX-2 (unknown origin) using arachidonic acid as substrate preincubated for 10 mins followed by substrate addition and measured after 5 mins by fluorescence based analysis
Chain of Prostaglandin G/H synthase 2 (Homo sapiens) (P35354 whole entry, looked up): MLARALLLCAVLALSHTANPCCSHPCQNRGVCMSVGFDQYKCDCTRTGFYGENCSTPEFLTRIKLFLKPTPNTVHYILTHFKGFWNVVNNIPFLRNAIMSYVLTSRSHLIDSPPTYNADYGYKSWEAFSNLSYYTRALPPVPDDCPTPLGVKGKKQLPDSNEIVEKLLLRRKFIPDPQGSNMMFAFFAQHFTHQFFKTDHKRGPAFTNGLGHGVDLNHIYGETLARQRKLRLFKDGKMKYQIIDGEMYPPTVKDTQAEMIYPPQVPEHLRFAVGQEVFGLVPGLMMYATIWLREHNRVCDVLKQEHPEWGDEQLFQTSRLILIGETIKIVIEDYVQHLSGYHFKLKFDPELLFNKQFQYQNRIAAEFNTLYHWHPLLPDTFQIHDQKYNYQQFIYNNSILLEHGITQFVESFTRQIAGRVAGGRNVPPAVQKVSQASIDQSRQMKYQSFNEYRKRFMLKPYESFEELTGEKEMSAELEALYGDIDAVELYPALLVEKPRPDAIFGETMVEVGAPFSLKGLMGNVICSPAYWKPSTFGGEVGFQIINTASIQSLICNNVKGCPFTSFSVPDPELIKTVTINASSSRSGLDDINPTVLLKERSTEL

SMILES | IC50 [1] | IC50 [2]
Cc1[nH]n(-c2ccccc2)c(=O)c1Cc1ccc(C(=O)NO)cc1 | 5730 nM | 75 nM
CCc1nn(-c2ccccc2)c(O)c1Cc1ccc(C(=O)NO)cc1 | 321 nM | 134 nM
CC(C)(C)c1nn(-c2ccccc2)c(O)c1Cc1ccc(C(=O)NO)cc1 | 1290 nM | 144 nM
Cc1nn(-c2cccc(Cl)c2)c(O)c1Cc1ccc(C(=O)NO)cc1 | 1360 nM | 58 nM
